Consider one molecule from patent publication US20250082765A1, “MOLECULES AS ANTICANCER AGENTS FOR TARGETED TREATMENT OF BREAST AND PROSTATE CANCER” (priority 2021, published 2025).

Data set [1] is described as follows: in vivo. The conditions noted are these: albino, mouse, intravenous.
Method: (§1) The route of administration incorporated for ester of citric acid with capecitabine and estrogen and ester of citric acid with capecitabine and dihydrotestosterone is through intravenous (IV) bolus.
(§2) The biodistribution analysis was carried out for capecitabine in plasma. […] The biodistribution analysis was carried out in breast tissue for females and in prostate gland for males along with several other organs including blood, liver, lungs and spleen.
(§3) The biodistribution analysis was carried out in three groups of albino mice. The female albino mice of age 7-8 weeks and weight 19g-35g were analyzed for the distribution of capecitabine in breast tissue. The male albino mice of age 7-8 weeks and weight 20g-30g were analyzed for the distribution of capecitabine in prostate gland. The study groups comprised of 3 groups including group 1, group 2 and group 3. The study group 1 comprised 6 mice receiving normal control, study group 2 comprised 6 mice receiving pure drug solution and study group 3 comprised 6 mice receiving molecule of formula (I) anticancer drug.
(§4) The analysis of capecitabine in plasma was initiated by liquid-liquid extraction using ethyl acetate. The extraction was carried out on ethylene bridged hybrid (BEH) C18 (100×2.1 mm, 1.7 μm) column. An isocratic flow rate of 0.5 ml/min of acetonitrile (0.1%) and 0.002M ammonium acetate as mobile phase was incorporated. Mass spectrometry analysis was carried out in multiple reaction monitoring modes. The precursor to product ion transitions with mass to ion (m/z) ratio of 360.04 to 244.08 was found for capecitabine. […] The biodistribution data for capecitabine was obtained for concentrations ranging from 5 ng/ml and 40 ng/ml.
(§5) The biodistribution of capecitabine was also analyzed for several other organs such as blood, liver, lungs and the spleen. […] The biodistribution of capecitabine was analyzed at time intervals of 0.5 hours, 1 hour and 2 hours. The biodistribution data was recorded for 6 mice.
Data set [2] can be described thus: Biodistribution analysis of capecitabine in other organs (blood, liver, lungs, spleen) of mice. Conditions: later hours (1 hour, 2 hours).
Method: as §1, §2, §3, §4, §5

SMILES strings stand for the structures.

The molecule `CCCCCOC(=O)Nc1nc(=O)n([C@@H]2O[C@H](C)[C@@H](O)[C@H]2O)cc1F` [capecitabine] had a concentration at 0.5 h in data set [1] (liver) of 13 ng/mL. Moreover, the concentration at 0.5 h in data set [1] (lungs) was found to be 12.5 ng/mL. In addition, the concentration at 0.5 h in data set [1] (spleen) was 12.1 ng/mL. For the same molecule, the concentration at 0.5 h in data set [1] (whole blood) came to 13.6 ng/mL. In addition, in data set [2], the “biodistribution of capecitabine in blood” value was “negligible”, the “biodistribution of capecitabine in liver” value is reported as “negligible”, the “biodistribution of capecitabine in lungs” value is recorded as “negligible” and the “biodistribution of capecitabine in spleen” value was “negligible”.
